Data: US20230382919A1, “OXA- IBOGAINE INSPIRED ANALOGUES FOR TREATMENT OF NEUROLOGICAL AND PSYCHIATRIC DISORDERS” (The Trustees of Columbia University in the City of New York, priority 2021, published 2023)
Read-outs that look alike come from different tables or passages of the source.

Legend:
5-HT2A = 5-HT2A (Homo sapiens (Human), UniProt P28223); assay: 5-HT2A agonist (IP1) assay, HEK-293 cells (commercial); assay type: cell-based; conditions: for Emax at 10 µM: HEK293, read-out: % of control agonist maximal response (5-HT2A); for EC50: IP1 agonist assay
Description: (§1) Potency (IC50 and EC50) and efficacy values for hERG, rKOR-CHO, hMOR-CHO, h5-HT2A-HEK, h5-HT2B-CHO, h5-HT2C HEK were obtained by screening the selected compounds via commercially available assay services.

5-HT2C = 5-HT2C (Homo sapiens (Human), UniProt P28335); assay: 5-HT2C agonist (IP1) assay, HEK-293 cells (commercial); assay type: cell-based; conditions: for Emax at 10 µM: HEK293, read-out: % of control agonist maximal response (5-HT2C); for EC50: IP1 agonist assay
Description: as §1

5-HT2B = 5-HT2B (Homo sapiens (Human), UniProt P41595); assay: 5-HT2B agonist (IP1) assay, CHO cells (commercial); assay type: cell-based; conditions: for Emax at 10 µM: CHO, read-out: % of control agonist maximal response (5-HT2B); for EC50: IP1 agonist assay
Description: as §1

hSERT = hSERT (Homo sapiens (Human), UniProt P31645); assay: hSERT fluorometric screening assay (APP+ uptake, hSERT-HEK cells); assay type: cell-based; conditions: average ± SEM, n ≥ 4; read-out: IC50 SERT [μM ± SEM]
Experimental: (§2) Inhibition assays of transporters (hSERT and rVMAT2) were performed according to the following protocol.
(§3) Stably transfected hSERT-HEK and rVMAT2-HEK cellular cultures were maintained in Dulbecco's Minimal Essential Medium (DMEM) with GlutaMAX (Gibco) with the following additions: 10% (v/v) Fetal Bovine Serum (FBS, Atlanta Biologicals), 100 U/mL Penicillin (Gibco), and 10 μg/mL Streptomycin (Gibco). With regards to the former cell lineage, an additional ingredient, 500 μg/mL Geneticin (G418) (Gibco) was included to preserve the respective transgene.
(§4) For both hSERT and rVMAT2 screening experiments, respective singly transfected cells were seeded at a density of 0.09×10^6 cells/well in poly-D-Lysine (Alamanda Polymers, Inc.) coated white solid-bottom 96-well plates (Costar). Growth was permitted for approximately 44 hours in said aqueous media and at an incubation environment of 37° C. and 5% Carbon Dioxide. At the beginning of the experiment, the cellular growth solution was aspirated, and individual cells were rinsed with 150 μL of 1×Dulbecco's Phosphate Buffered Saline (PBS; HyClone). 63 μL of Experimental Media (consisting of the following contents: DMEM without phenol red but with 4.5 g/L of D-Glucose (Gibco), 1% (v/v) FBS (Atlanta Biologicals), 100 U/mL Penicillin (Gibco), and 10 μg/mL Streptomycin (Gibco)) with 2×tiered concentrations of inhibitor (or DMSO, the vehicle of these experiments) were added to the respective wells. Control inhibitors used in these studies include Imipramine for hSERT experiments, and Reserpine for rVMAT2 experiments (Eiden, L. E. and Weihe, E. 2011; Sette, M. et al. 1983). At the conclusion of the pre-incubation period (60 minutes for hSERT experiments and 30 minutes for rVMAT2 experiments), 63 μL of Experimental Media containing 2×various concentrations of tested inhibitor (or vehicle) along with a specified amount of fluorescent substrate, APP^+ (Karpowicz, R. J. et al 2013) (final concentration: 1.1 μM for hSERT experiments) or FFN206 (Hu, G. et al. 2013) (final concentration: 0.75 μM for rVMAT2 experiments) were added to the present solution contained within the wells. […] A final solution of 120 μL of PBS is finally added to all corresponding wells for cell maintenance before undergoing fluorescence uptake reading by a BioTek H1MF plate reader. […]
(§5) Numerical analysis of the collected experimental data preceded as accordingly. Respective inhibitor values were first subtracted from vehicular values to quantify the respective fluorescence uptake. This metric was then analyzed using the dose-response-inhibitor nonlinear curve fitting model ([inhibitor] vs response (three parameters)) as supplied by GraphPad Prism 8 software. […]

rVMAT2 = rVMAT2 (Rattus norvegicus (Rat), UniProt Q01827); assay: rVMAT2 fluorometric screening assay (FFN206 uptake, rVMAT2-HEK cells); assay type: cell-based; conditions: average ± SEM, n ≥ 4; read-out: IC50 VMAT2 [μM ± SEM]
Experimental: as §2, §3, §4, §5

mouse DOR (mDOR) = mouse DOR (mDOR) (Mus musculus (Mouse), UniProt P32300); assay: G-protein BRET functional opioid assay, DOR; assay type: cell-based; conditions: for Emax: normalized to DPDPE, read-out: % of control agonist maximal response (DOR)
Experimental: (§6) HEK-293T cells were obtained from the American Type Culture Collection (Rockville, MD) and were cultured in a 5% CO2 atmosphere at 37° C. in Dulbecco's Modified Eagle Medium (high glucose #11965; Life Technologies Corp.; Grand Island, NY) supplemented with 10% FBS (Premium Select, Atlanta Biologicals; Atlanta, GA), 100 U/mL penicillin, and 100 μg/mL streptomycin (#15140, Life Technologies). DNA Constructs: The mouse MOR (mMOR), the mouse DOR (mDOR) and the rat KOR (rKOR) were provided by Dr Lakshmi Devi at Mount Sinai School of Medicine. The G proteins used included untagged GαoB with Renilla luciferase 8 (RLuc8) inserted at position 91 (GαoB-RLuc8); Gβ1 (β1); Gγ2 which was fused to the full-length mVenus at its N-terminus via the amino acid linker GSAGT (mVenus-γ2). All constructs were sequence confirmed prior to use in experiments.
(§7) Transfection: The following cDNA amounts were transfected into HEK-293T cells (5×10^6 cells/plate) in 10-cm dishes using polyethylenimine (PEI) in a 1:1 ratio (diluted in Opti-MEM, Life Technologies): 2.5 μg MOR/DOR/KOR, 0.125 μg GαoBRLuc8, 6.25 μg (1, 6.25 μg mVenus-γ2. Cells were maintained in the HEK-293T media described above. After 24 hours the media was changed, and the experiment was performed 24 hours later (48 hours after transfection). BRET: Transfected cells were dissociated and re-suspended in phosphate-buffered saline (PBS). Approximately 200,000 cells/well were added to a black-framed, white-well, 96-well plate (#60050; Perkin Elmer; Waltham, MA). The microplate was centrifuged and the cells were resuspended in PBS. After 5 minutes, 5 μM of the luciferase substrate coelenterazine H was added to each well. After 5 minutes, ligands were added and the BRET signal was measured 5 minutes later on a PHERAstar FS plate reader. The BRET signal was quantified by calculating the ratio of the light emitted by the energy acceptor, mVenus (510-540 nm), over the light emitted by the energy donor, RLuc8 (485 nm). This drug-induced BRET signal was normalized using the Emax of a known agonist (DAMGO, DPDPE or U-50,488) as the maximal response at MOR/DOR/KOR. Data were analyzed using the dose-response-stimulation nonlinear curve fitting model (log[agonist] vs. response (three parameters)).

KOR = KOR (Rattus norvegicus (Rat), UniProt P34975); assay: KOR agonist (cAMP) assay, CHO cells (commercial); assay type: cell-based; conditions: for Emax / Emax at 10 µM: read-out: % of control agonist maximal response (KOR)
Description: as §1

mouse MOR (mMOR) = mouse MOR (mMOR) (Mus musculus (Mouse), UniProt P42866); assay: G-protein BRET functional opioid assay, MOR; assay type: cell-based; conditions: for Emax: normalized to DAMGO, read-out: % of control agonist maximal response (MOR)
Experimental: as §6, §7

rat KOR (rKOR) = rat KOR (rKOR) (Rattus norvegicus (Rat), UniProt P34975); assay: G-protein BRET functional opioid assay, KOR; assay type: cell-based; conditions: for Emax: normalized to U-50,488, read-out: % of control agonist maximal response (KOR)
Experimental: as §6, §7

hERG = hERG (Homo sapiens (Human), UniProt Q12809); assay: hERG radioligand ([3H]Dofetilide) displacement binding assay (commercial); conditions: for IC50: [3H]Dofetilide displacement
Description: as §1

[1] = Table 2, cAMP agonist assay, rat KOR, CHO

Sequence of 5-HT2C (P28335 whole entry, looked up): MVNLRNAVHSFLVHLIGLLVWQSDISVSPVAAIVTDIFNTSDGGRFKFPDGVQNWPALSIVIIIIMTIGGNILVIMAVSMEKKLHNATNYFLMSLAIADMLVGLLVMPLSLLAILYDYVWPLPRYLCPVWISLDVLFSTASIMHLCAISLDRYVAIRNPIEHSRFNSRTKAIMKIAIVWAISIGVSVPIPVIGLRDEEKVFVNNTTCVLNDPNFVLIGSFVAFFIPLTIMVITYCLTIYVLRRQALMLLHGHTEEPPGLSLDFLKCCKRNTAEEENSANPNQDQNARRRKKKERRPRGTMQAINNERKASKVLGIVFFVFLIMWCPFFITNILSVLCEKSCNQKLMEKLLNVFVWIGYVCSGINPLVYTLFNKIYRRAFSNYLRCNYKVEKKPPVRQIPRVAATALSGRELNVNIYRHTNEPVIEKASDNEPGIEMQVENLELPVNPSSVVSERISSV
Sequence of rVMAT2 (Q01827 whole entry): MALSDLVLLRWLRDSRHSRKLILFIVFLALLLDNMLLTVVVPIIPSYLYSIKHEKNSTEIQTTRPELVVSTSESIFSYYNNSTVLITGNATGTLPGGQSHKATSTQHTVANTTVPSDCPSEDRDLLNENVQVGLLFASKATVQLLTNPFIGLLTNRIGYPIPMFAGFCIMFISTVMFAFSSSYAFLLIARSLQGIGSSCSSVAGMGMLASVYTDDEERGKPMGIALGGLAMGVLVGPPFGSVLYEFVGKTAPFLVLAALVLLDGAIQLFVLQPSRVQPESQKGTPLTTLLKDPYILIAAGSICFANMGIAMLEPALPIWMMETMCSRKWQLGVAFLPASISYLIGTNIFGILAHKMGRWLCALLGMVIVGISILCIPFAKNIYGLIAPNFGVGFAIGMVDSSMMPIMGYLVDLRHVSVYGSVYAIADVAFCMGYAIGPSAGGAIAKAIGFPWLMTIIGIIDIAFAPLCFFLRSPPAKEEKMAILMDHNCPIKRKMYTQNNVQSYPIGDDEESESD
Sequence of 5-HT2B (P41595 whole entry): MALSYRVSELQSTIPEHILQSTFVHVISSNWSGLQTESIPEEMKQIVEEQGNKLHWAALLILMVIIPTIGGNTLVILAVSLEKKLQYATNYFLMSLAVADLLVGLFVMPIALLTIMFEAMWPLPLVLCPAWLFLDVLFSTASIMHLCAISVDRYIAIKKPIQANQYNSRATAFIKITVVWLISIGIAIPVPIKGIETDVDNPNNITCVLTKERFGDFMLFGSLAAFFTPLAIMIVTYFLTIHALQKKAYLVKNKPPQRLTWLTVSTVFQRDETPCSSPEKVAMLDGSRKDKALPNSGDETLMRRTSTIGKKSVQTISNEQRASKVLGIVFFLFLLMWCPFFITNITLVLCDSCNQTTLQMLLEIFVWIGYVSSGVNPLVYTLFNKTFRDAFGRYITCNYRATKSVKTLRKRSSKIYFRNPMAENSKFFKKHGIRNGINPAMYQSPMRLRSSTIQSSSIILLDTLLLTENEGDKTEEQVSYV
Sequence of hERG (Q12809 whole entry): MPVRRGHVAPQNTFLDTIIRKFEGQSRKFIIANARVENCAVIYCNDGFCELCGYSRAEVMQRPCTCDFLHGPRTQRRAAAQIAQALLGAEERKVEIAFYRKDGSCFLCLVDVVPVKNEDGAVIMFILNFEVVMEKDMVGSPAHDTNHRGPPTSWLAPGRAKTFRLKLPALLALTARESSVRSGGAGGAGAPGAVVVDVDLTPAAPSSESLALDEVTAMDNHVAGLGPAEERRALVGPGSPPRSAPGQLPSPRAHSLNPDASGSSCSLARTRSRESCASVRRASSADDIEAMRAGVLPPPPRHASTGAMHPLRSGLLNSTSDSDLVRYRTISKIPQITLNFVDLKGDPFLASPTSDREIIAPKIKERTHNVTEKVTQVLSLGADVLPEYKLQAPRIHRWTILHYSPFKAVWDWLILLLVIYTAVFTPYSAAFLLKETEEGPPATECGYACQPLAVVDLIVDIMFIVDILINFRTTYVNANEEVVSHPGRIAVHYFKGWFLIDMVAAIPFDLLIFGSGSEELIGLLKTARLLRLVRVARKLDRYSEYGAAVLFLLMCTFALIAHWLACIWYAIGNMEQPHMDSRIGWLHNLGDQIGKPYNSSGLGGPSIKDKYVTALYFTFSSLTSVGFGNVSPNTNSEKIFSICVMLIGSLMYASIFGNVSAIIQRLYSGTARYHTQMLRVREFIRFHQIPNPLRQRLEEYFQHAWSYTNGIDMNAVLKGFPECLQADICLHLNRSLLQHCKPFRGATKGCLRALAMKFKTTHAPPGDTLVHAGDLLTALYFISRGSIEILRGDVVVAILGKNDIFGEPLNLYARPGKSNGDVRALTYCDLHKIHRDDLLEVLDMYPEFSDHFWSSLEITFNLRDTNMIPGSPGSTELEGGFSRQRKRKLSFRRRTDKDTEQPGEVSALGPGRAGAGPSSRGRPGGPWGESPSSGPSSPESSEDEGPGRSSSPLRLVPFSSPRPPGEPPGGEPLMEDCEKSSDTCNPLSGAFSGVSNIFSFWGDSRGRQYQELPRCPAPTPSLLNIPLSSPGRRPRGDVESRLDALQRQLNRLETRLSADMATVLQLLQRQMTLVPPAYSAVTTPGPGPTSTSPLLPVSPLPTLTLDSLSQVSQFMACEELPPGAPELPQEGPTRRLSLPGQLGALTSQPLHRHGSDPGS
Sequence of mouse MOR (mMOR) (P42866 whole entry, looked up): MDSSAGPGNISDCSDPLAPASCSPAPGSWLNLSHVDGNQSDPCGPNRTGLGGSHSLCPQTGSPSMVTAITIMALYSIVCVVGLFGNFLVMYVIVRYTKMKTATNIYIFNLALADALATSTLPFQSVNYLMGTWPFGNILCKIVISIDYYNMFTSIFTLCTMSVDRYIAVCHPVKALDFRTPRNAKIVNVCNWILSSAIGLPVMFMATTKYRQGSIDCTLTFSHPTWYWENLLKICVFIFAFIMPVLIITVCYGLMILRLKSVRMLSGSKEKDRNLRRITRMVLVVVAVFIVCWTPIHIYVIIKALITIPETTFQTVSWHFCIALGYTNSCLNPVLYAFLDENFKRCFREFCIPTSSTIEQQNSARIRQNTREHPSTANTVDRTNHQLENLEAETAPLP

Compound: Oc1ccc2oc3c(c2c1)CCNCC3 [drawing 169]
- Emax at 10 µM (5-HT2A; Table 4): 72%
- EC50 (5-HT2A; Table 4): 600 nM
- Emax at 10 µM (5-HT2C; Table 4): 93%
- EC50 (5-HT2C; Table 4): 100 nM
- Emax at 10 µM (5-HT2B; Table 4): 19%
- EC50 (5-HT2B; Table 4): > 10000 nM

Compound: CN1CCc2oc3ccccc3c2CC1 [drawing 166]
- IC50 (hSERT): 1.4 ± 0.3 µM
- IC50 (rVMAT2): 4.9 ± 0.94 µM

Compound: Oc1ccc2oc3c(c2c1)CCN1CCCC3C1 (stereo not drawn) [drawing 175]
- EC50 (mouse DOR (mDOR)): 120 nM
- Emax (mouse DOR (mDOR)): 55%
- Emax (KOR; CHO, Table 5, CAMP Assay): 91%
- EC50 (KOR; Table 5, CAMP Assay): 50 nM
- EC50 (mouse MOR (mMOR)): 110 nM
- Emax (mouse MOR (mMOR)): 44%
- EC50 (rat KOR (rKOR)): 140 nM
- Emax (rat KOR (rKOR)): 30%

Compound: Oc1ccc2oc3c(c2c1)CCN1CCCC3C1 (stereo not drawn) [drawing 171]
- IC50 (hERG; Table 4): ~60000 nM
- inhibition at 30 µM (hERG; human, HEK-293 cells expressing hERG, probe [3H]Dofetilide, Table 4, efficacy at 30 μM, read-out: % inhibition of control specific binding (hERG)): 38%
- Emax at 10 µM (5-HT2A; Table 4): 1%
- EC50 (5-HT2A; Table 4): > 10000 nM
- Emax at 10 µM (5-HT2C; Table 4): < 0%
- EC50 (5-HT2C; Table 4): > 10000 nM
- Emax at 10 µM (5-HT2B; Table 4): 5%
- EC50 (5-HT2B; Table 4): 400 nM

Compound: CC1Cc2oc3ccc(O)cc3c2CCN1 (stereo not drawn) [drawing 173]
- EC50 (mouse DOR (mDOR)): 620 nM
- Emax (mouse DOR (mDOR)): 45%
- Emax (KOR; CHO, Table 5, CAMP Assay): 96%
- EC50 (KOR; Table 5, CAMP Assay): 60 nM
- EC50 (mouse MOR (mMOR)): 200 nM
- Emax (mouse MOR (mMOR)): 16%
- EC50 (rat KOR (rKOR)): 130 nM
- Emax (rat KOR (rKOR)): 36%

Compound: CN1CCc2oc3ccccc3c2CC1 [drawing 162]
- IC50 (hERG; Table 2, HEK-293): > 10000 nM
- inhibition at 10 µM (hERG; human, HEK-293 cells expressing hERG, probe [3H]Dofetilide, Table 2, at 10 μM, read-out: % inhibition of control specific binding (hERG)): 11%
- Emax at 10 µM (5-HT2A; Table 2): 26%
- EC50 (5-HT2A; Table 2): > 10000 nM
- Emax at 10 µM (5-HT2C; Table 2): 99%
- EC50 (5-HT2C; Table 2): ~200 nM
- Emax at 10 µM (KOR; CHO, Table 2): 36%
- EC50 (KOR; [1]): ~4200 nM
- Emax at 10 µM (5-HT2B; Table 2): 4%
- EC50 (5-HT2B; Table 2): > 10000 nM

Compound: c1ccc2c3c(oc2c1)CCCNC3 [drawing 163]
- Emax at 10 µM (5-HT2A; Table 2): 26%
- EC50 (5-HT2A; Table 2): ~60000 nM
- Emax at 10 µM (5-HT2C; Table 2): 78%
- EC50 (5-HT2C; Table 2): ~1300 nM
- Emax at 10 µM (KOR; CHO, Table 2): 45%
- EC50 (KOR; [1]): ~4400 nM
- Emax at 10 µM (5-HT2B; Table 2): 22%
- EC50 (5-HT2B; Table 2): > 10000 nM

Compound: CN1CCCc2oc3ccccc3c2C1 [drawing 164]
- Emax at 10 µM (5-HT2A; Table 2): 4%
- EC50 (5-HT2A; Table 2): > 10000 nM
- Emax at 10 µM (5-HT2C; Table 2): 44%
- EC50 (5-HT2C; Table 2): ~14000 nM
- Emax at 10 µM (KOR; CHO, Table 2): 47%
- EC50 (KOR; [1]): ~3000 nM
- Emax at 10 µM (5-HT2B; Table 2): 3%
- EC50 (5-HT2B; Table 2): > 10000 nM

Compound: c1ccc2c3c(oc2c1)CCNCC3 [drawing 165]
- IC50 (hSERT): 0.45 ± 0.06 µM
- IC50 (rVMAT2): 1.4 ± 0.23 µM

Compound: c1ccc2c3c(oc2c1)CCCNC3 [drawing 167]
- IC50 (hSERT): 11 ± 2.9 µM
- IC50 (rVMAT2): 0.061 ± 0.01 µM

Compound: c1ccc2c3c(oc2c1)CCNCC3 [drawing 161]
- Emax at 10 µM (5-HT2A; Table 2): 77%
- EC50 (5-HT2A; Table 2): ~1000 nM
- Emax at 10 µM (5-HT2C; Table 2): 90%
- EC50 (5-HT2C; Table 2): < 100 nM
- Emax at 10 µM (KOR; CHO, Table 2): 36%
- EC50 (KOR; [1]): ~1200 nM
- Emax at 10 µM (5-HT2B; Table 2): 20%
- EC50 (5-HT2B; Table 2): > 10000 nM

Compound: Oc1ccc2oc3c(c2c1)CCNCC3 [drawing 172]
- Emax at 10 µM (KOR; CHO, Table 5, CAMP Assay): < 0%
- EC50 (KOR; Table 5, CAMP Assay): > 10000 nM

Compound: CC1Cc2oc3ccc(O)cc3c2CCN1C (stereo not drawn)
- EC50 (mouse DOR (mDOR)): 1200 nM
- Emax (mouse DOR (mDOR)): 66%
- EC50 (mouse MOR (mMOR)): 320 nM
- Emax (mouse MOR (mMOR)): 46%
- EC50 (rat KOR (rKOR)): 79 nM
- Emax (rat KOR (rKOR)): 53%

Compound: CC1Cc2oc3ccc(O)cc3c2CCN1 (stereo not drawn) [drawing 170]
- Emax at 10 µM (5-HT2A; Table 4): 45%
- EC50 (5-HT2A; Table 4): 1900 nM
- Emax at 10 µM (5-HT2C; Table 4): 86%
- EC50 (5-HT2C; Table 4): 400 nM

Compound: CN1CCCc2oc3ccccc3c2C1 [drawing 168]
- IC50 (hSERT): 7.1 ± 2.3 µM
- IC50 (rVMAT2): 15 ± 4.6 µM
